According to the supplement of paper PMC4862054:

Key:
HCC1937 [1] = experiment: normalised viability (% of control), CellTiter-Blue; higher = more viable cells (about 100 = DMSO control); conditions: 100 nM; incubation time: 72 h
Description: (§1)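 DSRT, CellTiter-Blue viability, 72 h incubation. Signal is normalised to DMSO and benzethonium chloride controls. Value is the normalised response at dose 3.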

Hs578T [2] = experiment: as above; conditions: 100 nM; incubation time: 72 h
Description: as §1

MDA-MB-436 [3] = experiment: as above; conditions: 100 nM; incubation time: 72 h
Description: as §1

DU-4475 = experiment: as above; conditions: 10 nM; incubation time: 72 h
Description: as §1

CAL-85-1 = experiment: as above; conditions: 10 nM; incubation time: 72 h
Description: as §1

MDA-MB-468 = experiment: as above; conditions: 100 nM; incubation time: 72 h
Description: as §1

BT-549 [4] = experiment: as above; conditions: 100 nM; incubation time: 72 h
Description: as §1

CAL-148 [5] = experiment: as above; conditions: 10 nM; incubation time: 72 h
Description: as §1

MDA-MB-231 = experiment: as above; conditions: 100 nM; incubation time: 72 h
Description: as §1

SK-BR-3 [6] = experiment: as above; conditions: 100 nM; incubation time: 72 h
Description: as §1

CAL-120 [7] = experiment: as above; conditions: 100 nM; incubation time: 72 h
Description: as §1

CAL-51 [8] = experiment: as above; conditions: 10 nM; incubation time: 72 h
Description: as §1

BT-474 [9] = experiment: as above; conditions: 100 nM; incubation time: 72 h
Description: as §1

HDQ-P1 = experiment: as above; conditions: 10 nM; incubation time: 72 h
Description: as §1

HCC1143 [10] = experiment: as above; conditions: 100 nM; incubation time: 72 h
Description: as §1

MFM-223 [11] = experiment: as above; conditions: 100 nM; incubation time: 72 h
Description: as §1

MDA-MB-453 [12] = experiment: as above; conditions: 10 nM; incubation time: 72 h
Description: as §1

HCC1599 = experiment: as above; conditions: 100 nM; incubation time: 72 h
Description: as §1

HCC1937 [13] = experiment: normalised response (% of control), CellTiter-Glo; higher = more viable cells (100 = DMSO, 0 = benzethonium chloride kill control); conditions: incubation time: 72 h
How it was run: (§2)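 After 72 h with compound in 384-well plates, breast cancer cell lines seeded as 20 µl suspension were read for CellTox Green fluorescence at 485/520 nm. CellTiter-Glo luminescence was then read after 10 min at room temperature. Compound was present at 5 concentrations in 10-fold steps over a 10,000-fold range set per compound, and plates were normalised to 0.1 % DMSO (100) and a positive kill control (0). Values are normalised signals, each at a single concentration.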

Hs578T [14] = experiment: as above; conditions: incubation time: 72 h
How it was run: as §2

MDA-MB-436 [15] = experiment: as above; conditions: incubation time: 72 h
How it was run: as §2

BT-549 [16] = experiment: as above; conditions: incubation time: 72 h
How it was run: as §2

CAL-148 [17] = experiment: as above; conditions: incubation time: 72 h
How it was run: as §2

SK-BR-3 [18] = experiment: as above; conditions: incubation time: 72 h
How it was run: as §2

CAL-120 [19] = experiment: as above; conditions: incubation time: 72 h
How it was run: as §2

CAL-51 [20] = experiment: as above; conditions: incubation time: 72 h
How it was run: as §2

BT-474 [21] = experiment: as above; conditions: incubation time: 72 h
How it was run: as §2

HCC1143 [22] = experiment: as above; conditions: incubation time: 72 h
How it was run: as §2

MFM-223 [23] = experiment: as above; conditions: incubation time: 72 h
How it was run: as §2

MDA-MB-453 [24] = experiment: as above; conditions: incubation time: 72 h
How it was run: as §2

Row | Structure (SMILES) | normalised viability (HCC1937 [1]) [%] | normalised viability (Hs578T [2]) [%] | normalised viability (MDA-MB-436 [3]) [%] | normalised viability (DU-4475) [%] | normalised viability (CAL-85-1) [%] | normalised viability (MDA-MB-468) [%] | normalised viability (BT-549 [4]) [%] | normalised viability (CAL-148 [5]) [%] | normalised viability (MDA-MB-231) [%] | normalised viability (SK-BR-3 [6]) [%] | normalised viability (CAL-120 [7]) [%] | normalised viability (CAL-51 [8]) [%] | normalised viability (BT-474 [9]) [%] | normalised viability (HDQ-P1) [%] | normalised viability (HCC1143 [10]) [%] | normalised viability (MFM-223 [11]) [%] | normalised viability (MDA-MB-453 [12]) [%] | normalised viability (HCC1599) [%] | normalised response (HCC1937 [13]) [%] | normalised response (Hs578T [14]) [%] | normalised response (MDA-MB-436 [15]) [%] | normalised response (BT-549 [16]) [%] | normalised response (CAL-148 [17]) [%] | normalised response (SK-BR-3 [18]) [%] | normalised response (CAL-120 [19]) [%] | normalised response (CAL-51 [20]) [%] | normalised response (BT-474 [21]) [%] | normalised response (HCC1143 [22]) [%] | normalised response (MFM-223 [23]) [%] | normalised response (MDA-MB-453 [24]) [%]
1 | Oc1ncnc2[nH]ncc12 [Allopurinol] | 94.5 | 94 | 108 | 104 | 102 | 105 | 87.3 | 108 | 109 | 103 | 107 | 90 | 106 | 106 | 113 | 91.2 | 110 | 98.5 | – | – | – | – | – | – | – | – | – | – | – | –
2 | O=NN(CCCl)C(=O)NCCCl [Carmustine] (10000 nM) | – | – | – | – | – | – | – | – | – | – | – | – | – | – | – | – | – | – | 99.6 | 101 | 96.7 | 110 | 100 | 95.2 | 96.2 | 116 | 91.5 | 106 | 94.4 | 87.3
3 | O=NN(CCCl)C(=O)NCCCl [Carmustine] | 87.8 | 96.3 | 119 | 108 | 95 | 123 | 111 | 91.5 | 90.8 | 102 | 91.3 | 105 | 111 | 105 | 91.8 | 83.8 | 109 | 114 | – | – | – | – | – | – | – | – | – | – | – | –
4 | CC1=C2C[C@H]3[C@@H](CC=C4C[C@@H](O)CC[C@@]43C)[C@@H]2CC[C@]12O[C@@H]1C[C@H](C)CN[C@H]1[C@H]2C [Cyclopamine] (10000 nM) | – | – | – | – | – | – | – | – | – | – | – | – | – | – | – | – | – | – | 97.1 | 101 | 84.6 | 58 | 110 | 102 | 103 | 106 | 113 | 93.2 | 101 | 103
5 | COc1cc2c(cc1O)CC[C@@H]1[C@@H]2CC[C@]2(C)[C@@H](O)CC[C@@H]12 [2-methoxyestradiol] | 103 | 103 | 100 | 106 | 101 | 102 | 91.7 | 93.3 | 94.3 | 99.2 | 87.9 | 118 | 121 | 98.8 | 99.8 | 108 | 95.3 | 95 | – | – | – | – | – | – | – | – | – | – | – | –
6 | Cc1sc2c(c1C)C(c1ccc(Cl)cc1)=N[C@@H](CC(=O)OC(C)(C)C)c1nnc(C)n1-2 [(+)JQ1] (10000 nM) | – | – | – | – | – | – | – | – | – | – | – | – | – | – | – | – | – | – | 68.2 | 41.3 | 76.4 | 35.7 | 49.1 | 53.2 | 78 | 47.5 | 66.1 | 58.3 | 45.1 | 32.6
7 | CC1=C2C[C@H]3[C@@H](CC=C4C[C@@H](O)CC[C@@]43C)[C@@H]2CC[C@]12O[C@@H]1C[C@H](C)CN[C@H]1[C@H]2C [Cyclopamine] | 100 | 84.1 | 96.3 | 107 | 109 | 94.4 | 111 | 113 | 84.9 | 90.8 | 88.2 | 114 | 124 | 120 | 116 | 103 | 123 | 113 | – | – | – | – | – | – | – | – | – | – | – | –
8 | O=C1CN2Cc3c(ccc(Cl)c3Cl)N=C2N1 [Anagrelide] | 94.9 | 88 | 94.2 | 98.6 | 91.6 | 95.2 | 92.5 | 97 | 99.2 | 60.9 | 85.6 | 98.7 | 122 | 114 | 84.8 | 93 | 109 | 104 | – | – | – | – | – | – | – | – | – | – | – | –
9 | C[C@]1(O)C[C@@H](c2nc(-c3ccc4ccc(-c5ccccc5)nc4c3)c3c(N)nccn32)C1 [OSI-906] | 92.5 | 74.8 | 94.5 | 94.1 | 104 | 98.6 | 84.4 | 101 | 83.8 | 78.3 | 90 | 97.4 | 110 | 76 | 105 | 95.5 | 86.6 | 94.9 | – | – | – | – | – | – | – | – | – | – | – | –
